According to patent US20240408062A1 (Purdue Research Foundation, priority 2022, published 2024):

Each compound was assayed against SARS-CoV-2 3CLpro (Severe acute respiratory syndrome coronavirus 2, UniProt P0DTD1) (assay: Inhibition of SARS-CoV-2 3CLpro, continuous fluorescence assay with FRET-based substrate UIVT3). Conditions: FRET substrate UIVT3, 50-200 nM enzyme, pH 7.5, 25° C.
Assay type: biochemical
Description: Kinetic assays were performed in Costar 3694 EIA/RIA 96-well half-area, flat bottom, black polystyrene plates (Corning, Corning, NY) at 25° C. The increase in fluorescence intensity was measured at an emission wavelength of 528 nm (20 nm bandwidth) using an excitation wavelength of 485 (bandwidth 20 nm) using a CLARIOstar Plate Reader (BMG Labtech, Cary, NC). The initial rates of the reactions were determined from the slopes of the Relative Fluorescence Units (RFU) versus time (RFU min^−1). Inhibition data were collected and analyzed as described previously.

SMILES | Activity of SARS-CoV-2 Mpro inhibitors
CN(C(=O)[C@@H](NC(=O)C(F)(F)F)C(C)(C)C)[C@H](CC1CCCC1)C(=O)NC(C[C@@H]1CCNC1=O)C(=O)C(=O)c1ccccc1 (some centres unmarked) [Compound 3] | A+ (A+ < 10 μM)
CC(C)C[C@@H](C(=O)N[C@@H](C[C@@H]1CCNC1=O)C(=O)C(=O)c1ccccc1)N(C)C(=O)[C@@H](NC(=O)C(F)(F)F)C(C)(C)C [Compound 2] | A+ (A+ < 10 μM)
COc1cccc2[nH]c(C(=O)N[C@@H](CC(C)C)C(=O)N[C@@H](C[C@@H]3CCNC3=O)C(=O)C(=O)c3ccccc3)cc12 [Compound 1] | A++ (A++ < 1 μM)
CC(C)C[C@H](CC(=O)[C@@H](NC(=O)C(F)(F)F)C(C)(C)C)C(=O)N[C@@H](C[C@@H]1CCNC1=O)C(=O)C(=O)c1ccccc1 [Compound 4] | A++ (A++ < 1 μM)
CC(C)C[C@@H](C(=O)N[C@@H](CC1CCCNC1=O)C(=O)C(=O)c1ccccc1)N(C)C(=O)[C@@H](NC(=O)C(F)(F)F)C(C)(C)C (some centres unmarked) [Compound 5] | A++ (A++ < 1 μM)
